Data from patent publication US9333207B2, “Pharmaceutical composition of 1-adamantylethyloxy-3-morpholino-2-propanol or pharmaceutically acceptable salts thereof for the treatment of cerebrovascular disease and neurodegenerative diseases of the central nervous system” (priority 2012, dated 2016).

Columns and labels:
[1] = Cerebral blood flow in the internal carotid artery system under ACVA model by ischemic and hemorrhagic types; assay type: in vivo; conditions: rats, intravenous, doses of 3, 30, 50 and 100 mg/kg
[2] = test system: neurospecific enolase; experiment: Experimental treatment of rats with ischemic ACVA: neuronal degradation marker activity; assay type: in vivo; conditions: 10 mg/kg once a day for 96 hours of ischemia
Text: This evidences about the appropriateness of the use of the pharmaceutical compositions for parenteral use comprising the active substance 1-adamantylethyloxy-3-morpholino-2-propanol or pharmaceutically acceptable salts thereof for treatment and prevention of ischemic brain lesions after thrombolysis, stenting, balloon angioplasty, atheroctomy and removal of aneurysms in the internal carotid and vertebral arteries system.

[3] = test system: NMDA-receptor-ionofor complex of hippocampal pyramidal neurons; experiment: Aspartate-activated currents in individual pyramidal hippocampal neurons; assay type: cell-based, white Wistar WAG\GSto rats; conditions: individual pyramidal hippocampal neurons of 15-day aged rats
[4] = Experimental treatment of rats with ischemic ACVA: endothelial dysfunction and nitrosating stress; assay type: in vivo; conditions: 20 mg/kg once a day for 96 hours of ischemia
Text: This provides the basis of its use for treatment and prevention of ischemic brain lesions after thrombolysis, stenting, balloon angioplasty, atheroctomy and removal of aneurysms in the internal carotid and vertebral arteries system.

Q: For `OC(COCCC12CC3CC(CC(C3)C1)C2)CN1CCOCC1` (stereo not drawn) [1-adamantylethyloxy-3-morpholino-2-propanol], which “cerebral blood flow in the internal carotid artery system” value [1] is on record?
A: The value was “stimulates the cerebral blood flow”.

Q: What about the “neuronal degradation marker activity (neurospecific enolase)” value [2] of the same compound?
A: Its value is “promoted the reduction”.

Q: What about the NMDA-receptors blocking/unblocking [3] of the same compound?
A: The NMDA-receptors blocking/unblocking was “very fast”.

Q: And the “modulation of aspartate-activated currents (action on NMDA-receptor-ionofor complex)” value [3]?
A: The value was “exhibits properties of activator NMDA-receptor-ionofor complex”.

Q: What about the endothelial dysfunction manifestations [4] of the same compound?
A: Its endothelial dysfunction manifestations is “promoted the decrease”.

Q: What about the nitrosating stress manifestations [4] of the same compound?
A: Its nitrosating stress manifestations is “promoted the decrease”.
